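Results reflect a 48-hour exposure of cells in 96-well plates to compound at five concentrations. GI50: concentration for 50% inhibition of growth. TGI: concentration producing complete growth inhibition.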
Key:
Assay in all cases: NCI-60 cell line screen, 48 h
HS 578T breast = test system: HS 578T breast
RPMI-8226 leukemia = test system: RPMI-8226 leukemia
EKVX NSCLC = test system: EKVX NSCLC
CCRF-CEM leukemia = test system: CCRF-CEM leukemia
MCF7 breast = test system: MCF7 breast
T-47D breast = test system: T-47D breast
COLO 205 colon = test system: COLO 205 colon
RXF 393 renal = test system: RXF 393 renal
HCT-15 colon = test system: HCT-15 colon
HT29 colon = test system: HT29 colon
SF-268 CNS = test system: SF-268 CNS
NCI-H460 lung = test system: NCI-H460 lung
U251 CNS = test system: U251 CNS
HOP-92 NSCLC = test system: HOP-92 NSCLC
OVCAR-8 ovarian = test system: OVCAR-8 ovarian
ACHN renal = test system: ACHN renal
NCI-H23 lung = test system: NCI-H23 lung
SNB-19 CNS = test system: SNB-19 CNS
HOP-62 NSCLC = test system: HOP-62 NSCLC
TK-10 renal = test system: TK-10 renal
UACC-62 melanoma = test system: UACC-62 melanoma
SF-295 CNS = test system: SF-295 CNS
NCI-H522 lung = test system: NCI-H522 lung
LOX IMVI melanoma = test system: LOX IMVI melanoma
KM12 colon = test system: KM12 colon
SK-MEL-28 melanoma = test system: SK-MEL-28 melanoma
IGROV1 ovarian = test system: IGROV1 ovarian
UO-31 renal = test system: UO-31 renal
SK-MEL-5 melanoma = test system: SK-MEL-5 melanoma

For `O=c1cc(N2CCOCC2)oc2c(-c3ccc4c(c3)OCCO4)csc12`, the GI50 (HS 578T breast) was 221 nM, the TGI (HS 578T breast) was 1400 nM and the GI50 (RPMI-8226 leukemia) was 439 nM. It also gave a TGI (RPMI-8226 leukemia) of 4660 nM, a GI50 (EKVX NSCLC) of 333 nM and a TGI (EKVX NSCLC) of 6150 nM. For the same molecule, the GI50 (CCRF-CEM leukemia) was 1490 nM, the TGI (CCRF-CEM leukemia) was > 61900 nM and the GI50 (MCF7 breast) was 284 nM. For the same molecule, the TGI (MCF7 breast) was 11300 nM, the GI50 (T-47D breast) was 167 nM and the TGI (T-47D breast) was 643 nM. For the same molecule, the GI50 (COLO 205 colon) was 417 nM, the TGI (COLO 205 colon) was 2740 nM and the GI50 (RXF 393 renal) was 405 nM. The TGI (RXF 393 renal) was 3480 nM, the GI50 (HCT-15 colon) was 471 nM and the TGI (HCT-15 colon) was > 40800 nM. It also gave a GI50 (HT29 colon) of 379 nM, a TGI (HT29 colon) of 12200 nM and a GI50 (SF-268 CNS) of 687 nM. It also gave a TGI (SF-268 CNS) of 21600 nM, a GI50 (NCI-H460 lung) of 658 nM and a TGI (NCI-H460 lung) of 14200 nM. It also gave a GI50 (U251 CNS) of 1080 nM, a TGI (U251 CNS) of 35000 nM and a GI50 (HOP-92 NSCLC) of 214 nM. For the same molecule, the TGI (HOP-92 NSCLC) was 2560 nM, the GI50 (OVCAR-8 ovarian) was 498 nM and the TGI (OVCAR-8 ovarian) was 12000 nM. For the same molecule, the GI50 (ACHN renal) was 339 nM, the TGI (ACHN renal) was 10700 nM and the GI50 (NCI-H23 lung) was 760 nM. It also gave a TGI (NCI-H23 lung) of 17300 nM, a GI50 (SNB-19 CNS) of 1180 nM and a TGI (SNB-19 CNS) of 42800 nM. For the same molecule, the GI50 (HOP-62 NSCLC) was 302 nM, the TGI (HOP-62 NSCLC) was 5330 nM and the GI50 (TK-10 renal) was 257 nM. It also gave a TGI (TK-10 renal) of 1290 nM, a GI50 (UACC-62 melanoma) of 325 nM and a TGI (UACC-62 melanoma) of 2060 nM. The GI50 (SF-295 CNS) was 307 nM, the TGI (SF-295 CNS) was 3670 nM and the GI50 (NCI-H522 lung) was 282 nM. For the same molecule, the TGI (NCI-H522 lung) was 4160 nM, the GI50 (LOX IMVI melanoma) was 425 nM and the TGI (LOX IMVI melanoma) was 2820 nM. The GI50 (KM12 colon) was 1080 nM, the TGI (KM12 colon) was > 38600 nM and the GI50 (SK-MEL-28 melanoma) was 579 nM. For the same molecule, the TGI (SK-MEL-28 melanoma) was 11400 nM, the GI50 (IGROV1 ovarian) was 262 nM and the TGI (IGROV1 ovarian) was 1470 nM. For the same molecule, the GI50 (UO-31 renal) was 167 nM, the TGI (UO-31 renal) was 1790 nM and the GI50 (SK-MEL-5 melanoma) was 590 nM.

Source: PubChem BioAssay (NCI)
